Results from US8957093B2, “N-biphenylmethylindole modulators of PPARG” (The Scripps Research Institute, priority 2011, dated 2015).
Read-outs that look alike come from different tables or passages of the source.

Tests used:
[1] = target: GST-PPARG-LBD (Homo sapiens (Human), UniProt P37231); experiment: Lanthascreen PPARG competitive binding assay (Invitrogen, TR-FRET); settings: NA = not active, inc = incomplete curve, read-out: IC50 (nM) Lantha
In short: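 Values are fold change in 520 nm/490 nm FRET ratio relative to a 2% DMSO no-ligand control, excitation 340 nm. Compound dilutions starting at 10 μM competed against 5 nM Fluormone Pan-PPAR Green for GST-PPARG-LBD bound by 5 nM Tb anti-GST antibody. Incubation 2 h in the dark in assay buffer C, triplicate wells.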

[2] = target: Gal-4-PPAR (human PPAR LBD fused to GAL4 DNA-binding domain) (Homo sapiens (Human), UniProt P37231); experiment: GAL4-PPARG LBD / UAS-luciferase transactivation assay in HEK 293T cells; format: cell-based
[3] = Lanthascreen competitive binding
[4] = GAL4 transactivation, HEK 293T cells; NA = not active; read-out: EC50 (nM) GAL4
[5] = HEK-293T, 18 h; read-out: % transactivation at 10 μM (GAL4)
[6] = HEK-293T, 18 h, read-out: % transactivation at 10 μM (GAL4)
[7] = Lanthascreen PPARG competitive binding
[8] = GAL4 transactivation; read-out: EC50 (nM) GAL4

Sequence of Gal-4-PPAR (human PPAR LBD fused to GAL4 DNA-binding domain) (P37231 238-503): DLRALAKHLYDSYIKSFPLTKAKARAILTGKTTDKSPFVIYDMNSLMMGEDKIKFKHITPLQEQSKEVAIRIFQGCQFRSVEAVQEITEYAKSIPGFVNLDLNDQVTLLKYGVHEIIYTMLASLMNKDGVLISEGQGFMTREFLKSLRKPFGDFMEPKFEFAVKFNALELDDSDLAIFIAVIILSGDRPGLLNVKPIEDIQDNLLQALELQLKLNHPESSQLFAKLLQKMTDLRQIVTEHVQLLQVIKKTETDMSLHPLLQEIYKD
Sequence of GST-PPARG-LBD (P37231 238-503): as above

IC50 [1, 3] [nM] | EC50 [2, 4] [nM] | activation at 10 µM [2, 6] [%] | Compound | activation at 10 µM [2, 5] [%] | IC50 [1, 7] [nM] | EC50 [2] [nM] | EC50 [2, 8] [nM]
12 | 455 |  | COc1cc(F)cc([C@H](C)NC(=O)c2ccc3c(c2)c(C)c(C)n3Cc2ccc(-c3ccccc3C(=O)O)cc2)c1 [Example 146, (S)-4′-((5-((1-(3-fluoro-5-methoxyphenyl)ethyl)carbamoyl)-2,3-dimethyl-1H-indol-1-yl)methyl)-[1,1′-biphenyl]-2-carboxylic acid] | 30 |  |  | 
17 | 293 | 20 | Cc1c(C)n(Cc2ccc(-c3ccccc3C(=O)O)cc2)c2ccc(C(=O)N[C@@H](C)c3c(F)ccc(F)c3F)cc12 [Example 236, (S)-4′-((2,3-dimethyl-5-((1-(2,3,6-trifluorophenyl)ethyl)carbamoyl)-1H-indol-1-yl)methyl)-[1,1′-biphenyl]-2-carboxylic acid] |  |  |  | 
19 | 987 | 30 | Cc1c(C)n(Cc2ccc(-c3ccccc3C(=O)O)cc2)c2ccc(C(=O)NCc3ccc(F)cc3F)cc12 [Example 164, 4′-((5-((2,4-difluorobenzyl)carbamoyl)-2,3-dimethyl-1H-indol-1-yl)methyl)-[1,1′-biphenyl]-2-carboxylic acid] |  |  |  | 
9 | 106 |  | Cc1c(C)n(Cc2ccc(-c3ccccc3C(=O)O)cc2)c2ccc(C(=O)N[C@@H](C)c3cc(C(F)(F)F)ccc3C(F)(F)F)cc12 [Example 172, (S)-4′-((5-((1-(2,5-bis(trifluoromethyl)phenyl)ethyl)carbamoyl)-2,3-dimethyl-1H-indol-1-yl)methyl)-[1,1′-biphenyl]-2-carboxylic acid] | 8 |  |  | 
5 | 388 | 10 | Cc1c(C)n(Cc2ccc(-c3ccccc3C(=O)O)cc2)c2ccc(C(=O)N[C@H](C)c3cccc(Cl)c3Cl)cc12 [Example 171, (R)-4′-((5-((1-(2,3-dichlorophenyl)ethyl)carbamoyl)-2,3-dimethyl-1H-indol-1-yl)methyl)-[1,1′-biphenyl]-2-carboxylic acid] |  |  |  | 
 |  |  | Cc1c(C)n(Cc2ccc(-c3ccccc3C(=O)NO)cc2)c2ccc(C(=O)N[C@@H](C)c3cccc(C(C)C)c3)cc12 [Example 313] | 4 | 77 | 242 | 
20 | 9280 |  | COc1cc(OC)cc([C@H](C)NC(=O)c2ccc3c(c2)c(C)c(C)n3Cc2ccc(-c3ccccc3C(=O)O)cc2)c1 [Example 147, (S)-4′-((5-((1-(3,5-dimethoxyphenyl)ethyl)carbamoyl)-2,3-dimethyl-1H-indol-1-yl)methyl)-[1,1′-biphenyl]-2-carboxylic acid] | 20 |  |  | 
28 | 4160 |  | Cc1c(C)n(Cc2ccc(-c3ccccc3C(=O)O)cc2)c2ccc(C(=O)N[C@@H](C)c3ccc(OC(F)(F)F)cc3)cc12 [Example 153, (S)-4′-((2,3-dimethyl-5-((1-(4-(trifluoromethoxy)phenyl)ethyl)carbamoyl)-1H-indol-1-yl)methyl)-[1,1′-biphenyl]-2-carboxylic acid] | 25 |  |  | 
 |  |  | Cc1c(C)n(Cc2ccc(-c3ccccc3C(=O)O)cc2)c2ccc(C(=O)N[C@@H](C)c3ccc(C4CC4)cc3)cc12 [Example 304, (S)-4′-((5-((1-(4-Cyclopropylphenyl)ethyl)carbamoyl)-2,3-dimethyl-1H-indol-1-yl)methyl)-[1,1′-biphenyl]-2-carboxylic acid] | 15 | 50 |  | 2420
 |  |  | Cc1c(C)n(Cc2ccc(-c3ccccc3C(=O)O)cc2)c2ccc(C(=O)N[C@@H](C)c3cc(C(F)(F)F)ccc3Cl)cc12 [Example 302, (S)-4′-((5-((1-(2-Chloro-5-(trifluoromethyl)phenyl)ethyl)carbamoyl)-2,3-dimethyl-1H-indol-1-yl)methyl)-[1,1′-biphenyl]-2-carboxylic acid] | 20 | 3 |  | 48
4 | 161 |  | Cc1c(C)n(Cc2ccc(-c3ccccc3C(=O)O)cc2)c2ccc(C(=O)N[C@H](C)c3cc(C(F)(F)F)ccc3C(F)(F)F)cc12 [Example 173, (R)-4′-((5-((1-(2,5-bis(trifluoromethyl)phenyl)ethyl)carbamoyl)-2,3-dimethyl-1H-indol-1-yl)methyl)-[1,1′-biphenyl]-2-carboxylic acid] | 1 |  |  | 
11 | 172 |  | Cc1cc(Cl)ccc1[C@H](C)NC(=O)c1ccc2c(c1)c(C)c(C)n2Cc1ccc(-c2ccccc2C(=O)O)cc1 [Example 226, (S)-4′-((5-((1-(4-chloro-2-methylphenyl)ethyl)carbamoyl)-2,3-dimethyl-1H-indol-1-yl)methyl)-[1,1′-biphenyl]-2-carboxylic acid] | 20 |  |  | 
512 | 5240 |  | Cc1c(C)n(Cc2ccc(-c3ccccc3C(=O)O)cc2)c2ccc(C(=O)N[C@H](C)c3ccnc4ccccc34)cc12 [Example 181, (R)-4′-((2,3-dimethyl-5-((1-(quinolin-4-yl)ethyl)carbamoyl)-1H-indol-1-yl)methyl)-[1,1′-biphenyl]-2-carboxylic acid] | 40 |  |  | 
 |  |  | Cc1c(C)n(Cc2ccc(-c3ccccc3C(=O)O)cc2)c2ccc(C(=O)N[C@H](C)c3cccc(Br)c3)cc12 [Example 296, (R)-4′-((5-((1-(3-Bromophenyl)ethyl)carbamoyl)-2,3-dimethyl-1H-indol-1-yl)methyl)-[1,1′-biphenyl]-2-carboxylic acid] | 35 | < 1 |  | 69
 |  |  | CNC(=O)c1ccccc1-c1ccc(Cn2c(C)c(C)c3cc(C(=O)N[C@@H](C)c4cccc(C(C)C)c4)ccc32)cc1 [Example 311, (S)—N-(1-(3-Isopropylphenyl)ethyl)-2,3-dimethyl-1-((2′-(methylcarbamoyl)-[1,1′-biphenyl]-4-yl)methyl)-1H-indole-5-carboxamide] | 10 | 76 |  | 441
3 | 37 | 30 | Cc1c(C)n(Cc2ccc(-c3ccccc3C(=O)O)cc2)c2ccc(C(=O)N[C@H](C)c3c(F)ccc(F)c3F)cc12 [Example 235, (R)-4′-((2,3-dimethyl-5-((1-(2,3,6-trifluorophenyl)ethyl)carbamoyl)-1H-indol-1-yl)methyl)-[1,1′-biphenyl]-2-carboxylic acid] |  |  |  | 
 |  |  | Cc1cccc([C@H](C)NC(=O)c2ccc3c(c2)c(C)c(C)n3Cc2ccc(-c3ccccc3C(=O)O)cc2)c1 [Example 295, (S)-4′-((2,3-Dimethyl-5-((1-(m-tolyl)ethyl)carbamoyl)-1H-indol-1-yl)methyl)-[1,1′-biphenyl]-2-carboxylic acid] | 10 | 11 |  | 60

Compound | IC50 [1, 3] [nM] | EC50 [2, 4] [nM] | activation at 10 µM [2, 6] [%] | activation at 10 µM [2, 5] [%] | IC50 [1, 7] [nM] | EC50 [2] [nM] | EC50 [2, 8] [nM]
Cc1c(C)n(Cc2ccc(-c3ccccc3C(=O)O)cc2)c2ccc(C(=O)N[C@@H](C)c3ccc(C4CC4)cn3)cc12 [Example 261, (S)-4′-((5-((1-(5-cyclopropylpyridin-2-yl)ethyl)carbamoyl)-2,3-dimethyl-1H-indol-1-yl)methyl)-[1,1′-biphenyl]-2-carboxylic acid] | 4 | 50 |  | 30 |  |  | 
Cc1c(C)n(Cc2ccc(-c3ccccc3C(=O)O)cc2)c2ccc(C(=O)N[C@@H](C)c3ccnc(C4CC4)c3)cc12 [Example 268, (S)-4′-((5-(1-(2-cyclopropylpyridin-4-yl)ethylcarbamoyl)-2,3-dimethyl-1H-indol-1-yl)methyl)biphenyl-2-carboxylic acid] | 352 | 8970 |  | 20 |  |  | 
CCc1ccc([C@H](C)NC(=O)c2ccc3c(c2)c(C)c(C)n3Cc2ccc(-c3ccccc3C(=O)O)cc2)cc1 [Example 225, (S)-4′-((5-((1-(4-ethylphenyl)ethyl)carbamoyl)-2,3-dimethyl-1H-indol-1-yl)methyl)-[1,1′-biphenyl]-2-carboxylic acid] | 43 | 1130 |  | 20 |  |  | 
Cc1c(C)n(Cc2ccc(-c3ccccc3C(=O)O)cc2)c2ccc(C(=O)N[C@@H](C)c3ccc(Cl)c(Cl)c3)cc12 [Example 220, (S)-4′-((5-((1-(3,4-dichlorophenyl)ethyl)carbamoyl)-2,3-dimethyl-1H-indol-1-yl)methyl)-[1,1′-biphenyl]-2-carboxylic acid] | 10 | 142 |  | 30 |  |  | 
COc1ccc([C@H](C)NC(=O)c2ccc3c(c2)c(C)c(C)n3Cc2ccc(-c3ccccc3C(=O)O)cc2)cc1Cl [Example 197, (S)-4′-((5-((1-(3-chloro-4-methoxyphenyl)ethyl)carbamoyl)-2,3-dimethyl-1H-indol-1-yl)methyl)-[1,1′-biphenyl]-2-carboxylic acid] | 17 | 1630 |  | 20 |  |  | 
CC[C@@H](NC(=O)c1ccc2c(ccn2Cc2ccccc2-c2ccc(C(=O)O)cc2)c1)c1ccccc1 [Example 190, (R)-2′-((5-((1-phenylpropyl)carbamoyl)-1H-indol-1-yl)methyl)-[1,1′-biphenyl]-4-carboxylic acid] | 5 | 51 |  | 45 |  |  | 
Cc1c(C)n(Cc2ccc(-c3ccccc3C(=O)O)cc2)c2ccc(C(=O)N[C@@H](C)C3COc4ccccc4O3)cc12 (stereo partly drawn) [Example 214, 4′-((5-(((1S)-1-(2,3-dihydrobenzo[b][1,4]dioxin-2-yl)ethyl)carbamoyl)-2,3-dimethyl-1H-indol-1-yl)methyl)-[1,1′-biphenyl]-2-carboxylic acid] | 25 | 2350 |  | 20 |  |  | 
